# Experimental data as given in patent US20130225406A1 (priority 2010, published 2013).
# Test system: Trioza erytreae
# Type: in vivo
structure (smiles),measurement,setting,value
"CC1(S(=O)(=O)[O-])CC(=O)c2ccccc2C1=O.[Na+] (centres unmarked) [MSB, menadione sodium bisulphite]",trees that showed leaves with the typical symptoms of the Trioza erytreae attack,"Plot A 2000 trees, Plot B 300 trees, Plot C 100 trees, end of the summer of 2010",None
same,control of the Trioza erytreae attacks,"citrus trees, foliar treatment once a month with 80 ppm of MSB in aqueous solution from February 2010, assessed at the end of the summer of 2010",100%
